Reference: article PMC4611054, “Quantitative time-resolved analysis reveals intricate, differential regulation of standard- and immuno-proteasomes” (eLife, 2015)
Residues, ends and D or L forms follow the SMILES beside them.

What was measured:
Format in all cases: biochemical
[1] = target: T1, 20S mouse liver proteasome (Mus musculus, UniProt O55234+P70195+Q60692); experiment: Bz-VGR-MCA hydrolysis with and without peptide; details: activator; allosteric non-catalytic modifier site; terminal groups of LLVY not told; pH 7.2, 37 °C
T1 construct: gene Psmb5; native 20S core particle purified from mouse liver; alpha7beta7beta7alpha7; with Proteasome subunit beta type-1; Proteasome subunit beta type-2; Proteasome subunit beta type-3; Proteasome subunit beta type-4; Proteasome subunit alpha type-1; Proteasome subunit alpha type-2; Proteasome subunit alpha type-3; Proteasome subunit alpha type-4; Proteasome subunit alpha type-5; Proteasome subunit alpha type-6; Proteasome subunit alpha type-7

[2] = target: T1, 20S mouse liver proteasome; experiment: fluorogenic peptide hydrolysis, initial velocities, ABC-SMC fit of Michaelis-Menten and substrate-inhibition models; details: TEAD buffer pH 7.2, 37 °C, authors state the models fit poorly
[3] = target: T2, human 20S s-proteasome (T2 proteasome) (Homo sapiens, UniProt P28072+P28074+Q99436); experiment: fluorogenic peptide hydrolysis time courses, Bayesian fit of compartment model; details: TEAD buffer pH 7.2, 37 °C, 20-640 μM substrate, model-inferred active site affinity
T2 construct: gene PSMB5; native 20S core particle purified from T2 cells; alpha7beta7beta7alpha7; with Proteasome subunit beta type-1; Proteasome subunit beta type-2; Proteasome subunit beta type-3; Proteasome subunit beta type-4; Proteasome subunit alpha type-1; Proteasome subunit alpha type-2; Proteasome subunit alpha type-3; Proteasome subunit alpha type-4; Proteasome subunit alpha type-5; Proteasome subunit alpha type-6; Proteasome subunit alpha type-7

Question: How did the “Bz-VGR-MCA hydrolysis with and without peptide” value [1] turn out when Cc1cc(=O)oc2cc(NC(=O)[C@H](Cc3ccc(O)cc3)NC(=O)[C@@H](NC(=O)[C@H](CC(C)C)NC(=O)[C@H](CC(C)C)NC(=O)CCC(=O)O)C(C)C)ccc12 [LLVY peptide] (HELM PEPTIDE1{[O=C(O)CCC(=O)[*:2]].L.L.V.Y.[Cc1cc(=O)oc2cc(N[*:1])ccc12]}$$$$V2.0) was run?
Answer: degradation rate of the substrate Bz-VGR-MCA increases in the presence of the peptide LLVY

Question: For Cc1cc(=O)oc2cc(NC(=O)[C@H](Cc3ccc(O)cc3)NC(=O)[C@@H](NC(=O)[C@H](CC(C)C)NC(=O)[C@H](CC(C)C)NC(=O)CCC(=O)O)C(C)C)ccc12 [Suc-LLVY-MCA] (HELM PEPTIDE1{[O=C(O)CCC(=O)[*:2]].L.L.V.Y.[Cc1cc(=O)oc2cc(N[*:1])ccc12]}$$$$V2.0), which KM ([2]; site mainly beta5/beta5i) is on record?
Answer: Scatterplot of the kinetic parameters vmax and KM from the inferred posterior parameter distributions

Question: And the KaS ([3]; site mainly beta5)?
Answer: we observe a higher active site affinity (KaS) with a lower Hill coefficient (na)

Question: How did the KM ([2]; site mainly beta1/beta1i) turn out when Cc1cc(=O)oc2cc(NC(=O)[C@H](CCC(=O)O)NC(=O)[C@H](CC(C)C)NC(=O)[C@H](CC(C)C)NC(=O)OCc3ccccc3)ccc12 [Z-LLE-MCA] (HELM PEPTIDE1{[O=C(OCc1ccccc1)[*:2]].L.L.E.[Cc1cc(=O)oc2cc(N[*:1])ccc12]}$$$$V2.0) was run?
Answer: The substrates Suc-LLVY-MCA, Bz-VGR-MCA and Z-LLE-MCA were hydrolysed by mouse proteasome

Question: What about the KaS ([3]; site mainly beta1) of the same compound?
Answer: for i-proteasomes we observe lower affinity to the active site (KaS)
